Source: US20200297671A1, “METHODS OF AVOIDING EXCIPIENT-BASED ADVERSE EFFECTS AND OF EXPLOITING BIOLOGICAL PROPERTIES OF GRAS COMPOUNDS” (MASSACHUSETTS INSTITUTE OF TECHNOLOGY, priority 2019, published 2020)

Experiments:
patients = settings: cited from earlier work
mice = settings: cited from earlier work
UGT = UGT tissue assay (liver lysate); format: biochemical, porcine; settings: pig liver lysate, 500 μM
Procedure: Compound mixtures were prepared at 500 μM. Freshly extracted porcine liver was homogenized using a tissue homogenizer. The sample was separated using centrifugation and the supernatant was used as a test sample. Two independent experiments with two different liver extracts were performed as described for the microsomes.

Human UGT2B7 = molecular target: T1, Human UGT2B7 (Homo sapiens, UniProt P16662); test: UGT2B7 inhibition assay (Corning Supersomes, Biovision UGT activity kit); format: biochemical
T1 construct: purchased Corning
T1 sequence (P16662 24-529): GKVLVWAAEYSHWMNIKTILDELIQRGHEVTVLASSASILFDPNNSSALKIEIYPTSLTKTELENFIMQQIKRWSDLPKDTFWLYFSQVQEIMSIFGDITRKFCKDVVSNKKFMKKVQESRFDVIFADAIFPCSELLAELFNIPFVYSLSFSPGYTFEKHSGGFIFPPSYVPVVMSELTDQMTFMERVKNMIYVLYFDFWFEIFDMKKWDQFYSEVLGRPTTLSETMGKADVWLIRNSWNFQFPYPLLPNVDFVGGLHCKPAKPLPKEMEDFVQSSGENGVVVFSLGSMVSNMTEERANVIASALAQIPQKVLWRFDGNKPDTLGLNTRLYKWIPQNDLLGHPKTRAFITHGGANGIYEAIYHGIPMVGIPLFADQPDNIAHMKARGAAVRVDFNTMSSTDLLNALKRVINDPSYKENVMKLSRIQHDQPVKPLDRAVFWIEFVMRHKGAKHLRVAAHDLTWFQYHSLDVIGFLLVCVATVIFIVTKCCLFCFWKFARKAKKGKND
Procedure: UGT2B7 inhibition was measured using Corning® Supersomes™ Human UGT2B7. The inhibition of UGT2B7 was measured using the commercially-available Biovision UGT activity screening kit as previously described. Briefly, 0.1 mg/mL microsomes were mixed with Alamethicin for pore-formation and a proprietary UGT ligand that loses fluorescence after glucuronidation (Biovision). Plates were incubated for 5 minutes at RT and protected from light before the enzymatic reaction was initiated through the addition of UDPGA. […] Diclofenac (1 mM in PBS 1% DMSO) served as a positive inhibitor control.

P-gp = P-gp in vivo experiment (warfarin plasma concentration); design: species or system BALB/c mice; settings: mice
Procedure: A suspension of vitamin A palmitate in 10% DMSO PBS or 10% DMSO PBS buffer control were administered orally to five female BALB/c mice at a dose of 500 mg/kg 15 minutes prior to treatment. Mice were then treated orally with warfarin 20 mg/kg. Blood was sampled after 30 minutes of oral warfarin administration. Warfarin plasma concentrations were determined using LCMS.

In the case of `OC[C@H]1O[C@@H](O[C@H]2[C@H](O)[C@@H](O)C(O)O[C@@H]2CO)[C@H](O)[C@@H](O)[C@H]1O` (some centres unmarked) [lactose], the amount affecting individuals (patients; severe cases of lactose intolerance) is listed as “less than 200 mg”.

For `CC(C)C1=CC2=CC[C@@H]3[C@](C)(CCC[C@@]3(C)C(=O)O)[C@H]2CC1` [abietic acid], the toxicity in mice (mice) is given as “harmless in mice”, the “inhibition of UGT activity ex vivo” value (UGT) is given as “successfully inhibited UGT activity” and the “inhibition of UGT2B7 activity in microsomes (FIG. 18)” value (Human UGT2B7) is given as “can inhibit UGT2B7 activity”. The IC50 (Human UGT2B7; functional in vitro assay, microsomes, 30 minutes) was 2.2 ± 0.3 µM.

For `CCCCCCCCCCCCCCCC(=O)OC/C=C(C)/C=C/C=C(C)/C=C/C1=C(C)CCCC1(C)C` [vitamin A palmitate], the “systemic warfarin after oral delivery (FIG. 23)” value (P-gp) was “induces an increase of systemic warfarin” and the “increase of oral absorption of warfarin” value (P-gp; 500 mg/kg oral 15 minutes before warfarin 20 mg/kg oral, blood after 30 minutes) was 31%.

In the case of `O=C([O-])C1=NN(c2ccc(S(=O)(=O)[O-])cc2)C(=O)C1N=Nc1ccc(S(=O)(=O)[O-])cc1.[Na+].[Na+].[Na+]` (centres unmarked) [tartrazine], the “patients with adverse symptoms associated with tartrazine content” value (patients; tartrazine-containing versus tartrazine-free medications, all patients) is listed as “about 4%”.
